Laboratory results published in US8158605B2, “Azacytidine analogues and uses thereof” (Mount Sinai School of Medicine, priority 2007, dated 2012).

What was measured:
[1] = tested on: U937, HL60 and K562 cells; experiment: Differentiating induction (NBT reduction, benzidine staining); type: cell-based, human; settings: repeated exposure for 11 (HL60) or 14 (U937, K562) days
Method: Cell differentiation was studied in terms of morphology. […] After initial treatment on day 0, cells were exposed to the new portions of drugs on day 4, 7, and 10. The differentiation was evaluated by NBT reduction assay (U937 and HL60) or by benzidine staining (K562).

NFκB = experiment: LPS stimulated NFκB luciferase reporter activity in U937 cells; type: cell-based, human; settings: 10 nM, LPS 1 μg/ml, 1, 3 or 6 hours, compared to DMSO treated control
Method: NFκB-luciferase reporter genes were used to determine the influence of Aza-C and 5-Aza-C-5′-elaidic acid on NFκB-induced luciferase activity in a human monocytic cell line U937, stably transfected with a luciferase reporter containing three NFκB-binding sites. The induction of NFκB was performed using lipopolysaccharide (LPS) at 1 μg/ml for 30 minutes prior to the addition of Aza-C or 5-Aza-C-5′-elaidic acid in the concentrations 10 nM to the medium. The cells were cultured in RPMI-1640 medium including 10% fetal bovine serum. Before stimulation with LPS the cells were transferred to medium containing only 2% fetal bovine serum. Luciferase activity was measured by imaging in an IVIS imaging System 100 (Xenogen Corp., USA) after 1, 3 or 6 hours. The LPS stimulation increased with time over the 6 hours followed in the DMSO treated control cells. […] Generally, a positive stimulation of NFκB as observed for azacytidine is not positive, and it is positive that the LPS stimulation is not further increased by 5′Aza-C-5′-elaidic acid.

[2] = tested on: breast carcinoma cell line MT-3; experiment: MTT cytotoxicity; type: cell-based; settings: MT-3 breast carcinoma, 24 hours
Method: (§1) The cytotoxicity of Aza-C and 5-Aza-C-5′-elaidic acid was determined in a breast cancer cell line MT-3 and the adriablastin resistant cell line MT-3/ADR. The MT-3/ADR overexpress the MDR-1/p-glycoprotein. […] The cells were incubated for 24 hours. […] Six wells were used per test concentration. The cells were incubated with test compound for 24 hours. […] Similar activity was obtained for Aza-C and 5-Aza-C-5′-elaidic acid in the MT-3 breast carcinoma cell line, but in the MT-3/ADR resistant cell line the activity of Aza-C was lost. […] This may be of importance in the treatment of resistant cancer.

[3] = tested on: MT-3/ADR resistant breast carcinoma; experiment: MTT cytotoxicity; type: cell-based; settings: MDR1, MT-3/ADR resistant breast carcinoma (overexpress MDR-1/p-glycoprotein), 24 hours
Method: as §1

cell cycle = experiment: Cell cycle analysis of DNA contents by flow cytometry; type: cell-based
Method: Cells were pelleted by centrifugation, and washed twice with PBS, fixed with 70% (v/v) cold ethanol (−20° C.), and stored at 4° C. for at least 24 hours. The cells were washed in PBS. Cell pellets were stained with PI/RNase staining solution. The cell suspension was incubated in the dark at room temperature for 30 min. DNA content was determined using a FACSCalibur flow cytometry (Becton Dickinson, Mount View, Calif.). Percentages of cells in Sub-G1, G1, S and G2/M stages of the cell cycle were determined with DNA histogram-fitting program (Becton Dickinson). A minimum of 10,000 events per sample was recorded.
Cells were cultured for the indicated lengths of time before being processed for analyses of DNA contents by flow cytometry. Numerical values in a panel represent gated cell population with sub-G1 DNA contents. The most significant changes were observed after 24 hours of treatment.

**Q.** `CCCCCCCC/C=C/CCCCCCCC(=O)OC[C@H]1O[C@@H](n2cnc(N)nc2=O)[C@H](O)[C@@H]1O` [CP, 5-azacytidine 5′-elaidate] was tested. Which differentiation induction [1] did it give?
**A.** did not induce significant differentiation

**Q.** What about the “LPS stimulated NFκB luciferase activity” value (NFκB) of the same molecule?
**A.** did not differ from the DMSO control

**Q.** And the IC50 [2]?
**A.** 17 ± 15.7 µM

**Q.** What about the IC50 [3] of the same molecule?
**A.** 14.8 ± 12.8 µM

**Q.** What about the “% cell G1” value (cell cycle; 24 hour, dose 0.5 μM) of the same molecule?
**A.** 43.66%

**Q.** What about the “% cell G2/M” value (cell cycle; 24 hour, dose 0.5 μM) of the same molecule?
**A.** 11.05%

**Q.** What about the “% cell S” value (cell cycle; 24 hour, dose 0.5 μM) of the same molecule?
**A.** 28.15%

**Q.** And the “% cell Sub G1” value (cell cycle; 24 hour, dose 0.5 μM)?
**A.** 9.41%

**Q.** What about the “% cell G1” value (cell cycle; 24 hour, dose 1 μM) of the same molecule?
**A.** 36.17%

**Q.** And the “% cell G2/M” value (cell cycle; 24 hour, dose 1 μM)?
**A.** 8.82%

**Q.** And the “% cell S” value (cell cycle; 24 hour, dose 1 μM)?
**A.** 18.98%

**Q.** And the “% cell Sub G1” value (cell cycle; 24 hour, dose 1 μM)?
**A.** 21.02%

**Q.** What about the “% cell G1” value (cell cycle; 24 hour, dose 2 μM) of the same molecule?
**A.** 23.45%

**Q.** What about the “% cell G2/M” value (cell cycle; 24 hour, dose 2 μM) of the same molecule?
**A.** 2.64%

**Q.** And the “% cell S” value (cell cycle; 24 hour, dose 2 μM)?
**A.** 9.14%

**Q.** What about the “% cell Sub G1” value (cell cycle; 24 hour, dose 2 μM, listed as 5-azacytidine 5′-elaidate) of the same molecule?
**A.** 33.6%

**Q.** What about the “% cell Sub G1” value (cell cycle; 24 hour, dose 2 μM, listed as cp) of the same molecule?
**A.** 33.59%

**Q.** What about the “% cell G1” value (cell cycle; 48 hour, dose 0.5 μM) of the same molecule?
**A.** 34.79%

**Q.** What about the “% cell G2/M” value (cell cycle; 48 hour, dose 0.5 μM) of the same molecule?
**A.** 2.53%

**Q.** And the “% cell S” value (cell cycle; 48 hour, dose 0.5 μM)?
**A.** 42.96%

**Q.** What about the “% cell Sub G1” value (cell cycle; 48 hour, dose 0.5 μM) of the same molecule?
**A.** 15.14%

**Q.** What about the “% cell G1” value (cell cycle; 48 hour, dose 1 μM) of the same molecule?
**A.** 28.07%

**Q.** And the “% cell G2/M” value (cell cycle; 48 hour, dose 1 μM)?
**A.** 17.91%

**Q.** What about the “% cell S” value (cell cycle; 48 hour, dose 1 μM) of the same molecule?
**A.** 30.06%

**Q.** And the “% cell Sub G1” value (cell cycle; 48 hour, dose 1 μM)?
**A.** 14.34%

**Q.** And the “% cell G1” value (cell cycle; 48 hour, dose 2 μM)?
**A.** 22.51%

**Q.** What about the “% cell G2/M” value (cell cycle; 48 hour, dose 2 μM) of the same molecule?
**A.** 7.78%

**Q.** And the “% cell S” value (cell cycle; 48 hour, dose 2 μM)?
**A.** 15.62%

**Q.** And the “% cell Sub G1” value (cell cycle; 48 hour, dose 2 μM)?
**A.** 24.34%

**Q.** What about the “% cell G1” value (cell cycle; 72 hour, dose 0.5 μM) of the same molecule?
**A.** 38.72%

**Q.** And the “% cell G2/M” value (cell cycle; 72 hour, dose 0.5 μM)?
**A.** 18.82%

**Q.** And the “% cell S” value (cell cycle; 72 hour, dose 0.5 μM)?
**A.** 29.18%

**Q.** What about the “% cell Sub G1” value (cell cycle; 72 hour, dose 0.5 μM) of the same molecule?
**A.** 10.54%

**Q.** What about the “% cell G1” value (cell cycle; 72 hour, dose 1 μM) of the same molecule?
**A.** 40.67%

**Q.** And the “% cell G2/M” value (cell cycle; 72 hour, dose 1 μM)?
**A.** 18.26%

**Q.** What about the “% cell S” value (cell cycle; 72 hour, dose 1 μM) of the same molecule?
**A.** 28.77%

**Q.** What about the “% cell Sub G1” value (cell cycle; 72 hour, dose 1 μM) of the same molecule?
**A.** 10.75%
